Measurements as given in US11846639B2, “Ligand discovery for T cell receptors” (priority 2014, dated 2023).

Test system: AGA1 T cell receptor
Assay: Selection of yeast-displayed HLA-B5703 peptide library with AGA1 TCR, deep sequencing read counts
Assay type: binding
Details: for number of times the peptide was represented, Rd1: after round 1 of selection with AGA1 TCR; for number of times the peptide was represented, Rd2: after round 2 of selection with AGA1 TCR; for number of times the peptide was represented, Rd3: after round 3 of selection with AGA1 TCR; for number of times the peptide was represented, Rd4: after round 4 of selection with AGA1 TCR; for number of times the peptide was represented, Naïve: naïve library before selection
Method: Selection of pMHC libraries To maximize sensitivity of selections, all described selection steps were conducted at 4° using cold buffers, and refrigerated centrifuges. All spins were 5,000×g for 1 minute. Before each round of selection, a small sample of yeast (˜1×10^6 cells) were stained with an anti-epitope tag antibody. For the first round of selection, ˜2×10^9 yeast were washed once with PBS+0.5% BSA and 1 mM EDTA (PBE buffer) and then cleared with unloaded Streptavidin Microbeads (250 uL beads in 5 mL PBE) (Miltenyi, 130-048-101) to eliminate any nonspecifically binding yeast clones by incubating 1 hr at 4° with gentle rotation. The yeast were then spun down, resuspended in 5 mL PBE without a wash, and passed through a Miltenyi LS column. […] TCR-binding yeast were then selected via an LS column, washed in SDCAA, and then re-cultured in SDCAA, pH 4.5 at 30° C. overnight. Yeast were re-induced upon reaching OD>2. For each round of selection, at least 10-fold more yeast was used than recovered from the previous round to ensure complete coverage of all selected yeast. Second and third rounds of selection were conducted in the same manner, but with reduced volumes (50 µL of beads in 500 LL PBE). Progress of selections was monitored by counting of cells selected to TCR-bound streptavidin beads as compared to streptavidin beads alone via an Accuri C6 flow cytometer. […] For the final round of selection (conducted when the yeast count enriched by TCR loaded beads was higher than background, usually after 3 rounds), the libraries were stained with 500 nM streptavidin-TCR tetramer as described above, washed 3× with PBE, then incubated with 50 uL anti-Alexa647 Microbeads (Miltenyi, 130-091-395) in 450 µL PBE for 20 minutes. The yeast were washed a final time and passed through a Miltenyi LS column. Enriched yeast were then plated on SDCAA plates for characterization of individual colonies. Individual yeast clones were then screened for tetramer staining as described above. Plasmids containing the selected pMHC were isolated from positive clones via yeast miniprep (Zymoprep II kit, Zymo Research) and sequenced (Sequetech).
Deep sequencing of selection libraries. Pooled plasmids from 5×10^7 yeast from each round of selection were isolated via yeast miniprep (Zymoprep II kit, Zymo Research) and used as PCR template to prepare Illumina samples. Amplicon libraries were designed as follows: (Illumina P5-Truseq read 1-(N8)-Barcode-pMHC-(N8)-Truseq read 2-IlluminaP7). N8 was added immediately after both sequencing primers to generate diversity for low complexity sequencing reads. The adapter and barcode sequences were appended via nested 25-round cycles of PCR of the purified plasmids using Phusion polymerase (NEB). Primers were proximal to the peptide on the pMHC, annealing to the Aga2p leader sequence (5′ end) and MHC β1 domain (3′ end) to ensure high quality sequence reads of the peptide with double coverage. Final PCR products were run on a high percentage agarose gel and purified via gel extraction. PCR products were then quantitated via nanodrop, normalized for each barcoded round of selection to be equally represented, doped with 5-50% PhiX DNA to ensure sufficient sequence diversity for high quality sequence reads, and run on an Illumina MiSeq with 2×150 nt Paired End reads. The initial deep sequencing run, for the 2B4-I-E^k selections, was conducted with 1×150 nt Single End reads. When the sequencing data was analyzed as described below, we saw no significant difference in data quality between single and paired-end reads (as judged by comparing the results for 226/5cc7 when analyzed as single reads vs. paired-end reads). Deep sequencing was conducted at the Stanford Stem Cell Institute Genome Center.
The library was expressed and screened as described above in Example 1, with the AGA1 T cell receptor.
The top 20 peptides after round 3 has the sequences shown below in Table 3. […]

Sequence	number of times the peptide was represented, Rd1	number of times the peptide was represented, Rd2	number of times the peptide was represented, Rd3	number of times the peptide was represented, Rd4	number of times the peptide was represented, Naïve
RSFVPEIGMGF [HLA-B5703 library peptide selected with AGA1 TCR]	18	20370	22329	65722	8
YSFKPELKEIF [HLA-B5703 library peptide selected with AGA1 TCR]	5	5648	28641	20312	0
KSLTPEVRGYW [HLA-B5703 library peptide selected with AGA1 TCR]	15	13273	30634	38231	1
GTIRPEIREMW [HLA-B5703 library peptide selected with AGA1 TCR]	37	36754	226381	113394	5
SSFSPELRMRW [HLA-B5703 library peptide selected with AGA1 TCR]	10	14335	98338	48729	3
KSCTPEVREYF [HLA-B5703 library peptide selected with AGA1 TCR]	17	15114	94896	49796	0
SSGVPEVRMMF [HLA-B5703 library peptide selected with AGA1 TCR]	38	40422	215079	125041	6
NSLKPEIPDYF [HLA-B5703 library peptide selected with AGA1 TCR]	47	48656	268475	171826	11
NSFRPEVAMKY [HLA-B5703 library peptide selected with AGA1 TCR]	7	6013	31331	19786	6
GSLAPEIRMYW [HLA-B5703 library peptide selected with AGA1 TCR]	11	3108	23178	10848	9
LSLRPEIPLFF [HLA-B5703 library peptide selected with AGA1 TCR]	74	63749	183724	189891	5
KSLAPEVRDLF [HLA-B5703 library peptide selected with AGA1 TCR]	8	6502	34865	22054	0
WTYRPEVRGVW [HLA-B5703 library peptide selected with AGA1 TCR]	21	30482	128915	91015	4
ASFRPELAEFW [HLA-B5703 library peptide selected with AGA1 TCR]	11	14699	24829	42208	1
ASFSPELRMAW [HLA-B5703 library peptide selected with AGA1 TCR]	10	9925	47218	31919	0
SALRPEIRLLW [HLA-B5703 library peptide selected with AGA1 TCR]	50	28840	21235	70740	1
RSFYPEIREYW [HLA-B5703 library peptide selected with AGA1 TCR]	19	14782	119258	48648	7
KSFVPELKPAF [HLA-B5703 library peptide selected with AGA1 TCR]	36	37327	157329	120443	2
NSVKPEIRPVW [HLA-B5703 library peptide selected with AGA1 TCR]	10	10086	33679	32818	6
